Measured values taken from ChEMBL document CHEMBL3826955, “Steric structure-activity relationship of cyproheptadine derivatives as inhibitors of histone methyltransferase Set7/9” (Bioorg Med Chem, 2016).

molecular target: T1, Histone-lysine N-methyltransferase SETD7 (Homo sapiens, UniProt Q8WTS6); test: Inhibition of recombinant SET7/9 (unknown origin) using biotinylated histone H3-derived peptide/SAM as substrate after 60 mins by AlphaLISA assay
T1 sequence (Q8WTS6 whole entry): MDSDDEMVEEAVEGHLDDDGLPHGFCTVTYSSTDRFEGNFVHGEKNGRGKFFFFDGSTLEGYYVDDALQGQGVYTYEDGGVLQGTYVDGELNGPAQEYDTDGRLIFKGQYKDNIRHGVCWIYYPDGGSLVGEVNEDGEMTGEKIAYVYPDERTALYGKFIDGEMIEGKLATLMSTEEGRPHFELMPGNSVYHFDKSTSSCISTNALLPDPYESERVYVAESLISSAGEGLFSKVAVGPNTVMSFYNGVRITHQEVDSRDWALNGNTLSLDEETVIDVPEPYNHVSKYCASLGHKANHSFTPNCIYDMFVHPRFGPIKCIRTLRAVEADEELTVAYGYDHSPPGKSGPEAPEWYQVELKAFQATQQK

Point of comparison: `CN1CCC(=C2c3ccccc3Sc3ccccc32)CC1` [PIMETHIXENE], IC50 4.3 µM. Against it:
- CN1CCN(C2c3ccccc3Oc3ccccc32)CC1 — higher, > 100 µM
- CN1CCC(OC2c3ccccc3Oc3ccccc32)CC1 — higher, > 100 µM
- CN1CCC(OC2c3ccccc3Sc3ccccc32)CC1 — higher, > 100 µM
- CN1CCN(C2c3ccccc3Sc3ccccc32)CC1 — higher, > 100 µM
- CN1CCC(OC2c3ccccc3C=Cc3ccccc32)CC1 — higher, > 100 µM
- CN1CCN(C2c3ccccc3C=Cc3ccccc32)CC1 — higher, > 100 µM
- CN1CCC(=C2c3ccccc3C=Cc3ccccc32)CC1 [CYPROHEPTADINE] — within 1.5-fold, 3.4 µM
